Measurements from patent publication US20250376473A1, “PRMTS INHIBITOR AND USE THEREOF” (Cytosinlab Therapeutics Co., Ltd., priority 2022, published 2025).
Where two headings read alike, the source gives them in different places.

How the values were obtained:
HCT116 MTAP WT cells = test: Proliferation inhibition of HCT116 cells in vitro (CellTiter Glo); format: cell-based; details: 6 days, 9 concentrations starting from 30 μM, read-out: Cell proliferation inhibition rate HCT116 MTAP WT IC50 (nm)
Text: (§1) Biological Test Example 2 Proliferation Inhibition of HCT116 and HCT116 MTAP-KO Cells in Vitro
(§2) HCT116 cell line was purchased from the Chinese Academy of Sciences Cell Bank, and the MTAP gene was knocked out by CRISPR/Cas9 technology to obtain HCT116-MTAP-KO cell line.
(§3) McCoy's 5A medium (Gibco, catalog No. 16600082), fetal bovine serum (Gibco, catalog No. 10099141C), penicillin-streptomycin double antibody (Gibco, catalog No. 15140122), pancreatic enzyme (Gibco, catalog No. 25200056), CellTiter Glo assay kit (Promega, catalog No. G7572), 384-well transparent flat-bottomed black walled cell culture plate (Corning, catalog No. 3764), ultra micro sampler (Tecan, catalog No.D300e), Multimode reader (Biotek, catalog No. SynergyHTX)
(§4) 1. Cell culture: HCT116 and HCT116-MTAP-KO cells were cultured in McCoy'5A medium+10% fetal bovine serum+1% penicillin-streptomycin double antibody; to ensure that they were always in the logarithmic growth phase and the cell viability greater than 95%.
(§5) 2. Compound concentration gradient preparation: The compound to be tested was added to a 384-well plate using an ultra micro sampler, starting from 30 μM (HCT116 cells) or 3 μM (HCT116-MTAP-KO cells), and diluted with DMSO at 3 times for a total of 9 concentrations and set up three duplicate wells.
(§6) 3. Treatment of cells with compounds: Trypsin-digested HCT116 or HCT116-MTAP-KO cell suspension was added to the 384-well plates spotted with the compounds to be tested at 40 μL per well, i.e., 100 cells per well, and the final concentration of DMSO was 0.4%. The cell culture plate was incubated at 37° C. in a 5% CO2 incubator for 6 days.
(§7) 4. Detection: 20 μL of CellTiter Glo reagent was added to each well of the cell culture plate and incubated at room temperature for 30 minutes. A multimode reader was used to detect the luminescence signal at […].
(§8) The data was fitted with GraphPad Prism 8.0 software using a four parameter inhibitor-reaction model to obtain the IC50 value (half inhibitory concentration) of the test compounds.

[1] = system: HCT116-MTAP-KO cells (HCT116 MTAP null); test: Proliferation inhibition of HCT116 MTAP-KO cells in vitro (CellTiter Glo); format: cell-based; details: 6 days, 9 concentrations starting from 3 μM, read-out: Cell proliferation inhibition rate HCT116 MTAP null IC50 (nm)
Text: as §1, §2, §3, §4, §5, §6, §7, §8

Compound	IC50 (HCT116 MTAP WT cells; Homo sapiens, HCT-116, 144 h) [µM]	IC50 ([1]; HCT116-MTAP null, 144 h) [µM]	IC50 (HCT116 MTAP WT cells) [µM]	IC50 [1] [µM]
CCN(Cc1nc(-c2cnn(C(F)(F)F)c2)cs1)C(=O)c1cc2c(cc1F)nc(N)c1cnc(C)n12 [Example 80]	1 to 10	0.1 to 1		
Cc1ncn2c1c(N)nc1cc(F)c(C(=O)N3[C@H](C)COC[C@@H]3c3ccc(C(F)(F)F)cn3)cc12 [Example 153]	0.1 to 1	< 0.1		
Cc1nn(C)cc1N(Cc1ccc(OC(F)(F)F)cn1)C(=O)c1cc2c(cc1F)nc(N)c1c(C)ncn12 [Example 170]	< 0.1	< 0.1		
Cc1ncc2c(N)nc3cc(F)c(C(=O)N(Cc4cn5cc(C#N)ccc5n4)c4cnn(C)c4)cc3n12 [Example 63]	1 to 10	1 to 10		
Cc1ncc2c(N)nc3cc(F)c(C(=O)N(Cc4ccc(C(F)(F)F)cn4)c4cnn(C)c4)cc3n12 [Example 90]	1 to 10	< 0.1		
Cc1cn(C)c(N(Cc2ccc(C(F)(F)F)cn2)C(=O)c2cc3c(cc2F)nc(N)c2cnc(C)n23)n1 [Example 210, 4-Amino-N-(1,4-dimethyl-1H-imidazol-2-yl)-7-fluoro-1-methyl-N-((5-(trifluoromethyl)pyridin-2-yl)methyl)imidazolo[1,5-a]quinoxalin-8-carboxamide]	1 to 10	< 0.1		
Cc1ncc2c(N)nc3cc(F)c(C(=O)N(Cc4ccc(C(F)(F)F)cn4)c4cn[nH]c4)cc3n12 [Example 88]	1 to 10	0.1 to 1		
Cc1nn(C)cc1N(Cc1ncc(C(F)(F)F)cn1)C(=O)c1cc2c(cc1F)nc(N)c1cnc(C)n12 [Example 140]	1 to 10	0.1 to 1		
CCOc1ccc(CN(C(=O)c2cc3c(cc2F)nc(N)c2cnc(C)n23)c2cn(C)nc2C)nc1 [Example 136]	1 to 10	< 0.1		
Cc1ncc2c(N)nc3cc(F)c(C(=O)N4C(c5ccc(C(F)F)cn5)COC[C@H]4C)cc3n12 (stereo partly shown) [Example 110]	0.1 to 1	< 0.1		
CCn1cc(N(Cc2ccc(OC3CC3)cn2)C(=O)c2cc3c(cc2F)nc(N)c2cnc(C)n23)c(C)n1 [Example 171]	1 to 10	< 0.1		
Cc1ccc2c(N)nc3ccc(C(=O)N(Cc4ccc(C(F)(F)F)cn4)C(C)c4ncccn4)cc3n12 (stereo not shown) [Example 12]	1 to 10	0.1 to 1		
Cc1nn(C)cc1N(Cc1ccc(C(F)(F)F)cn1)Cc1cc2c(cc1F)nc(N)c1cnc(C)n12 [Example 208]	1 to 10	< 0.1		
Cc1ncc2c(N)nc3cc(F)c(C(=O)N(Cc4ccc(OC5COC5)cn4)c4ccnn4C)cc3n12 [Example 217]	1 to 10	< 0.1		
CCN(Cc1ccc(C(F)(F)F)cn1)C(=O)c1cc2c(cc1F)nc(N)c1cnc(C)n12 [Example 18]	1 to 10	< 0.1		
COc1ccc(N(Cc2ccc(OC3CC3)cn2)C(=O)c2cc3c(cc2F)nc(N)c2cnc(C)n23)cn1 [Example 146]	1 to 10	< 0.1		
Cc1nc(C)n2c1c(N)nc1ccc(C(=O)N(Cc3ccc(C(F)(F)F)cn3)C(C)c3ncccn3)cc12 (stereo not shown) [Example 3]	1 to 10	< 0.1		
Cc1cnc(C)c(N(Cc2ccc(C(F)(F)F)cn2)C(=O)c2cc3c(cc2F)nc(N)c2cnc(C)n23)c1 [Example 196]	1 to 10	< 0.1		
COc1ccc(C2COCC(C)N2C(=O)c2cc3c(cc2F)nc(N)c2cnc(C)n23)nn1 (stereo not shown) [Example 271]	1 to 10	< 0.1		
Cn1ncc2c(N)nc3cc(F)c(C(=O)N4CCC5(CCN(c6ccc(C(F)(F)F)cc6)CC5)C4)cc3c21 [Example 414]	1 to 10	0.1 to 1		
Cc1ncn2c1c(N)nc1ccc(C(=O)N(Cc3nc(N4CCOCC4)cs3)CC(C)C)cc12 [Example 301]	1 to 10	0.1 to 1		

Compound	IC50 (HCT116 MTAP WT cells; Homo sapiens, HCT-116, 144 h) [µM]	IC50 ([1]; HCT116-MTAP null, 144 h) [µM]	IC50 (HCT116 MTAP WT cells) [µM]	IC50 [1] [µM]
Cc1nn(C(C)C)cc1N(Cc1ccc(C(F)(F)F)cn1)C(=O)c1cc2c(cc1F)nc(N)c1cnc(C)n12 [Example 176]	1 to 10	< 0.1		
Cc1ncn2c1c(N)nc1cc(F)c(C(=O)N3C(C)COCC3c3ccc(C(F)F)cn3)cc12 (stereo not shown) [Example 101]			0.1 to 1	< 0.1
Cc1[nH]ncc1N(Cc1ccc(C(F)(F)F)cn1)C(=O)c1cc2c(cc1F)nc(N)c1cnc(C)n12 [Example 151]	1 to 10	0.1 to 1		
Cc1ncc2c(N)nc3cc(F)c(C(=O)N(Cc4ccc(C(F)(F)F)nn4)c4cnn(C)c4)cc3n12 [Example 119]	1 to 10	0.1 to 1		
Cc1nn(C)cc1N(Cc1ccc(OC2COC2)cn1)C(=O)c1cc2c(cc1F)nc(N)c1c(C)ncn12 [Example 195]	0.1 to 1	< 0.1		
CCn1cc(N(Cc2ccc(C(F)(F)F)nn2)C(=O)c2cc3c(cc2F)nc(N)c2cnc(C)n23)c(C)n1 [Example 202]	1 to 10	0.1 to 1		
Cc1ncc2c(N)nc3cc(F)c(C(=O)N4C(C)COC[C@@H]4c4ncc(C(F)(F)F)cc4F)cc3n12 (stereo partly shown) [Example 34]	1 to 10	< 0.1		
Cc1cc2nc(N)c3cnc(C)n3c2cc1C(=O)N(Cc1ccc(C(F)(F)F)cn1)c1cn(C)nc1C [Example 188, 4-Amino-N-(1,3-dimethyl-1H-pyrazol-4-yl)-1,7-dimethyl-N-((5-(trifluoromethyl)pyridin-2-yl)methyl)imidazolo[1,5-a]quinoxalin-8-carboxamide]	1 to 10	< 0.1		
COC1CCC1N(Cc1cn2cc(C(F)(F)F)ccc2n1)C(=O)c1cc2c(cc1F)nc(N)c1cnc(C)n12 (stereo not shown) [Example 240]	1 to 10	< 0.1		
CCn1nccc1N(Cc1ccc(C(F)(F)F)cn1)C(=O)c1cc2c(cc1F)nc(N)c1cnc(C)n12 [Example 206]	0.1 to 1	< 0.1		
Cc1ncc2c(N)nc3cc(F)c(C(=O)N(Cc4ccc(C(F)(F)F)cn4)C4COC4)cc3n12 [Example 158]	1 to 10	0.1 to 1		
Cc1ncc2c(N)nc3cc(F)c(C(=O)N(Cc4ccc(C(F)(F)F)cn4)c4ccnn4C)cc3n12 [Example 200]	0.1 to 1	< 0.1		
Cc1ncc2c(N)nc3cc(F)c(C(=O)N(C)C4COc5cc(Br)ccc54)cc3n12 (stereo not shown) [Example 40]	1 to 10	0.1 to 1		
CCOCCc1ccc(C2COCC(C)N2C(=O)c2cc3c(cc2F)nc(N)c2c(C)ncn23)nc1 (stereo not shown) [Example 103]	1 to 10	< 0.1		
Cc1nn(C)cc1N(Cc1ccc(OC(F)(F)F)cn1)C(=O)c1cc2c(cc1F)nc(N)c1cnc(C)n12 [Example 157]	1 to 10	< 0.1		
Cc1ncc2c(N)nc3cc(F)c(C(=O)N(Cc4ccc(C(F)(F)F)nn4)c4ccnn4C)cc3n12 [Example 223]	1 to 10	< 0.1		
Cc1ccc(N(Cc2ccc(C(F)(F)F)cn2)C(=O)c2cc3c(cc2F)nc(N)c2cnc(C)n23)cn1 [Example 139]	1 to 10	< 0.1		
Cc1ncc2c(N)nc3cc(F)c(C(=O)N(C)C4COc5cc(-c6cnn(C(F)(F)F)c6)ccc54)cc3n12 (stereo not shown) [Example 46]	0.1 to 1	1 to 10		
Cc1ncc2c(N)nc3cc(F)c(C(=O)N4C(C)COCC4c4cnc(C(F)(F)F)s4)cc3n12 (stereo not shown) [Example 89]	1 to 10	< 0.1		
Cc1ncc2c(N)nc3cc(F)c(C(=O)N(Cc4ccc(C(F)(F)F)cn4)c4c(F)cnn4C)cc3n12 [Example 201]	0.1 to 1	< 0.1		
